Measurements as given in patent US6642227B2, “Inhibitors of c-Jun N-terminal kinases (JNK) and other protein kinases” (Vertex Pharmaceuticals Incorporated, priority 2001, dated 2003).

Columns and labels:
Assay type in all cases: biochemical
activated JNK3 = molecular target: T1, activated JNK3 (Homo sapiens, UniProt P53779); experiment: JNK inhibition assay (spectrophotometric coupled-enzyme assay)
T1 construct: One such construct encodes amino acid residues Ser40-Glu402 of JNK3α1 and is preceded by Met and Gly residues; Met-Gly dipeptide (initiator Met plus Gly added for the NcoI site) (N); made in house; host or cells: E. coli BL21 (DE3)
Description: A BLAST search of the EST database using the published JNK3α1 cDNA as a query identified an EST clone (#632588) that contained the entire coding sequence for human JNK3α1. Polymerase chain reactions (PCR) using pfu polymerase (Strategene) were used to introduce restriction sites into the cDNA for cloning into the pET-15B expression vector at the NcoI and BamHI sites. The protein was expressed in E. coli. Due to the poor solubility of the expressed full-length protein (Met 1-Gln 422), an N-terminally truncated protein starting at Ser residue at position 40 (Ser 40) was produced. This truncation corresponds to Ser 2 of JNK1 and JNK2 proteins, and is preceded by a methionine (initiation) and a glycine residue. The glycine residue was added in order to introduce an NcoI site for cloning into the expression vector. In addition, systematic C-terminal truncations were performed by PCR to identify a construct that give rise to diffraction-quality crystals. One such construct encodes amino acid residues Ser40-Glu402 of JNK3α1 and is preceded by Met and Gly residues.
The construct was prepared by PCR using deoxyoligonucleotides: 5′ […] 3′ (forward primer with initiation codon underlined)(SEQ ID NO:1) and 5′ […] 3′ (reverse primer with stop codon underlined)(SEQ ID NO:2) as primers and was confirmed by DNA sequencing.
E.coli strain BL21 (DE3) (Novagen) was transformed with the JNK3 expression construct and grown at 30° C. in LB supplemented with 100 μg/ml carbenicillin in shaker flasks until the cells were in log phase (OD600˜0.8). Isopropylthio-β-D-[…] (IPTG) was added to a final concentration of 0.8 mM and the cells were harvested 2 hours later by centrifugation.
E. coli cell paste containing JNK3 was resuspended in 10 volumes/g lysis buffer (50 mM HEPES, pH 7.2, containing 10% glycerol (v/v), 100 mM NaCl, 2 mM DTT, 0.1 mM PMSF, 2 μg/ml Pepstatin, lug/ml each of E-64 and Leupeptin). Cells were lysed on ice using a microfluidizer and centrifuged at 100,000×g for 30 min at 4° C. The 100,000×g supernatant was diluted 1:5 with Buffer A (20 mM HEPES, pH 7.0, 10% glycerol (v/v), 2 mM DTT) and purified by SP-Sepharose (Pharmacia) cation-exchange chromatography (column dimensions: 2.6×20 cm) at 4° C. The resin was washed with 5 column volumes of Buffer A, followed by 5 column volumes of Buffer A containing 50 mM NaCl. Bound JNK3 was eluted with a 7.5 column volume linear gradient of 50-300 mM NaCl. JNK3 eluted between 150-200 mM NaCl.
Five mg of JNK3 was diluted to 0.5 mg/ml in 50 mM HEPES buffer, pH 7.5, containing 100 mM NaCl, 5 mM DTT, 20 mM MgCl2 and 1 mM ATP. GST-MKK7(DD) was added at a molar ratio of 1:2.5 GST-MKK7:JNK3. After incubation for 30 minutes at 25° C., the reaction mixture was concentrated 5-fold by ultrafiltration in a Centriprep-30 (Amicon, Beverly, Mass.), diluted to 10 ml and an additional 1 mM ATP added. This procedure was repeated three times to remove ADP and replenish ATP. The final addition of ATP was 5 mM and the mixture incubated overnight at 4° C.
The activated JNK3/GST-MKK7(DD) reaction mixture was exchanged into 50 mM HEPES buffer, pH 7.5, containing 5 mM DTT and 5% glycerol (w/v) by dialysis or ultrafiltration. The reaction mixture was adjusted to 1.1 M potassium phosphate, pH 7.5, and purified by hydrophobic interaction chromatography (at 25° C.) using a Rainin Hydropore column. […] Activated JNK3 (i.e. doubly phosphorylated JNK3) was stored at −70° C. at 0.25-1 mg/ml.
Compounds were assayed for the inhibition of JNK3 by a spectrophotometric coupled-enzyme assay. In this assay, a fixed concentration of activated JNK3 (10 nM) was incubated with various concentrations of a potential inhibitor dissolved in DMSO for 10 minutes at 30° C. in a buffer containing 0.1 M HEPES buffer, pH 7.5, containing 10 mM MgCl2, 2.5 mM phosphoenolpyruvate, 200 μM NADH, 150 μg/mL pyruvate kinase, 50 μg/mL lactate dehydrogenase, and 200 μM EGF receptor peptide. […]

human Lck kinase = human Lck kinase (UniProt P06239); experiment: Lck inhibition assay (A: radioactivity-based or B: spectrophotometric coupled-enzyme assay); settings: read-out: Lck Activity (Ki rating)
Description: The compounds were evaluated as inhibitors of human Lck kinase using either a radioactivity-based assay or spectrophotometric assay.
The compounds were assayed as inhibitors of full length bovine thymus Lck kinase (from Upstate Biotechnology, cat. no. 14-106) expressed and purified from baculo viral cells. Lck kinase activity was monitored by following the incorporation of ^33p from ATP into the tyrosine of a random poly Glu-Tyr polymer substrate of composition, Glu:Tyr=4:1 (Sigma, cat. no. P-0275). The following were the final concentrations of the assay components: 0.025 M HEPES, pH 7.6, 10 mM MgCl2, 2 mM DTT, 0.25 mg/ml BSA, 10 μM ATP (1-2 μCi ^33P-ATP per reaction), 5 mg/ml poly Glu-Tyr, and 1-2 units of recombinant human […] kinase. In a typical assay, all the reaction components with the exception of ATP were pre-mixed and aliquoted into assay plate wells. Inhibitors dissolved in DMSO were added to the wells to give a final DMSO concentration of 2.5%. The assay plate was incubated at 30 C. for 10 min before initiating the reaction with ^33P-ATP. After 20 min of reaction, the reactions were quenched with 150 μl of 10% trichloroacetic acid (TCA) containing 20 mM Na3PO4. The quenched samples were then transferred to a 96-well filter plate (Whatman, UNI-Filter GF/F Glass Fiber Filter, cat no. 7700-3310) installed on a filter plate vacuum manifold. Filter plates were washed four times with 10% TCA containing 20 mM Na3PO4 and then 4 times with methanol. 200 μl of scintillation fluid was then added to each well. The plates were sealed and the amount of radioactivity associated with the filters was quantified on a TopCount scintillation counter. The radioactivity incorporated was plotted as a function of the inhibitor concentration. The data was fitted to a competitive inhibition kinetics model to get the Ki for the compound.
(§1) The ADP produced from ATP by the human recombinant Lck kinase-catalyzed phosphorylation of poly Glu-Tyr substrate was quanitified using a coupled enzyme assay (Fox et al (1998) Protein Sci 7, 2249). In this assay one molecule of NADH is oxidised to NAD for every molecule of ADP produced in the kinase reaction. The disappearance of NADH can be conveniently followed at 340 nm.
(§2) The following were the final concentrations of the assay components: 0.025 M HEPES, pH 7.6, 10 mM MgCl2, 2 mM DTT, 5 mg/ml poly Glu-Tyr, and 50 nM of recombinant human Lck kinase. Final concentrations of the components of the coupled enzyme system were 2.5 mM phosphoenolpyruvate, 200 μM NADH, 30 μg/ml pyruvate kinase and 10 μg/ml lactate dehydrogenase.
(§3) In a typical assay, all the reaction components with the exception of ATP were pre-mixed and aliquoted into assay plate wells. Inhibitors dissolved in DMSO were added to the wells to give a final DMSO concentration of 2.5%. The assay plate was incubated at 30° C. for 10 min before initiating the reaction with 150 μM ATP. The absorbance change at 340 nm with time, the rate of the reaction, was monitored on a molecular devices plate reader. The data of rate as a function of the inhibitor concentration was fitted to competitive inhibition kinetics model to get the Ki for the compound.

human Src kinase = molecular target: T2, human Src kinase (Homo sapiens, UniProt P12931); experiment: Src inhibition assay (A: radioactivity-based or B: spectrophotometric coupled-enzyme assay); settings: assay A or B not specified; inhibitor concentration not given
T2 construct: full length recombinant human Src kinase; purchased Upstate Biotechnology 14-117; host or cells: baculovirus-infected cells
Description: The compounds were evaluated as inhibitors of human Src kinase using either a radioactivity-based assay or spectrophotometric assay.
The compounds were assayed as inhibitors of full length recombinant human Src kinase (from Upstate Biotechnology, cat. no. 14-117) expressed and purified from baculo viral cells. Src kinase activity was monitored by following the incorporation of ^33p from ATP into the tyrosine of a random poly Glu-Tyr polymer substrate of composition, Glu:Tyr=4:1 (Sigma, cat. no. P-0275). The following were the final concentrations of the assay components: 0.05 M HEPES, pH 7.6, 10 mM MgCl2, 2 mM DTT, 0.25 mg/ml BSA, 10 μM ATP (1-2 uCi ^33P-ATP per reaction), 5 mg/ml poly Glu-Tyr, and 1-2 units of recombinant human Src kinase. In a typical assay, all the reaction components with the exception of ATP were pre-mixed and aliquoted into assay plate wells.
Inhibitors dissolved in DMSO were added to the wells to give a final DMSO concentration of 2.5%. The assay plate was incubated at 30° C. for 10 min before initiating the reaction with ^33P-ATP. After 20 min of reaction, the reactions were quenched with 150 μl of 10% trichloroacetic acid (TCA) containing 20 mM Na3PO4. The quenched samples were then transferred to a 96-well filter plate (Whatman, UNI-Filter GF/F Glass Fiber Filter, cat no. 7700-3310) installed on a filter plate vacuum manifold. Filter plates were washed four times with 10% TCA containing 20 mM Na3PO4 and then 4 times with methanol. 200 μl of scintillation fluid was then added to each well. The plates were sealed and the amount of radioactivity associated with the filters was quantified on a TopCount scintillation counter. The radioactivity incorporated was plotted as a function of the inhibitor concentration. The data was fitted to a competitive inhibition kinetics model to get the Ki for the compound.
as §1, with “Src” for “Lck”
as §2, with “DTT, 0.25” for “DTT, 5”, “and 25” for “and 50”, “human Src” for “human Lck”
as §3, with “30” for “30°”, “100” for “150”, “compettive” for “competitive”

T1 sequence (P53779 40-402): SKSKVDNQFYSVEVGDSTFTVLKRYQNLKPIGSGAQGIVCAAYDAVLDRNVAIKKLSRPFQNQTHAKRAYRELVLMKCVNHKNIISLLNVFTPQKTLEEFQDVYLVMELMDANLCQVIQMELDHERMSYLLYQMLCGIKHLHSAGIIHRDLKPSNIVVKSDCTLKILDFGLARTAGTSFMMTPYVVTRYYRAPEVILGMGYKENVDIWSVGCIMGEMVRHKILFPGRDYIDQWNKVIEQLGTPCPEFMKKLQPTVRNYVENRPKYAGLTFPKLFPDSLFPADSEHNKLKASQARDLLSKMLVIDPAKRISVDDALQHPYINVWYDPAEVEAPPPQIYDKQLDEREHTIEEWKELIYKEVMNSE
T2 sequence (P12931 whole entry): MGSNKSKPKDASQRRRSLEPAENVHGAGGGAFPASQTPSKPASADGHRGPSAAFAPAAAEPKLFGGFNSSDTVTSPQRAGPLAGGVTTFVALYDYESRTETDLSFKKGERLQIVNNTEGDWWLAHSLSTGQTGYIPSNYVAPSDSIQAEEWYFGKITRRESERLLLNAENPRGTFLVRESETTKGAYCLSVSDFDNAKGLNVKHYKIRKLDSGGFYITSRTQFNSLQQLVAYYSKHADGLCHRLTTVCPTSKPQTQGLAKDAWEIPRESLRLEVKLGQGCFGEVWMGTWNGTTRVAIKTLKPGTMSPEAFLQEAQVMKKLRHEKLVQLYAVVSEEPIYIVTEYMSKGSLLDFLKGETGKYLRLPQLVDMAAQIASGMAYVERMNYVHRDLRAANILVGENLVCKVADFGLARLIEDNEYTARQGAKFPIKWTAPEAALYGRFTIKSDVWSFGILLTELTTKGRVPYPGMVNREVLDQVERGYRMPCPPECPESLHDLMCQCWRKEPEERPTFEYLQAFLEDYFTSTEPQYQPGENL

Row | Ki (activated JNK3; activated JNK3 10 nM, 10 μM ATP, 30° C., read-out: JNK3 Activity (Ki class A-C)) [nM] | Ki (human Lck kinase) [nM] | Structure (SMILES) | JNK3 Activity (percent inhibition class D-F) (activated JNK3; inhibitor concentration not given) | Src Activity (percent inhibition class D-F) (human Src kinase)
1 | 100 to 1000 | < 100 | Cc1cnc(Nc2ccccc2)nc1-c1sc(SCc2ccc(O)cc2)c(C#N)c1-c1cccc(Cl)c1 [Compound V-1, 4-(3-chloro-phenyl)-2-(4-hydroxy-benzylsulfanyl)-5-(5-methyl-2-phenylamino-pyrimidin-4-yl)-thiophene-3-carbonitrile] |  | 
2 |  |  | CSc1sc(-c2nc(C)cs2)c(C)c1-c1ccnc(Nc2ccccc2)n1 [IIb-1, {4-[4-methyl-2-methylsulfanyl-5-(4-methyl-thiazol-2-yl)-thiophen-3-yl]-pyrimidin-2-yl}-phenylamine] | D (Compounds having an activity designated as “D” provided a percent inhibition less than or equal to 24%) | D (Compounds having an activity designated as “D” provided a percent inhibition less than or equal to 24%)
